For the first test, the target named is T1, human PAH with the R408W mutation (A375 R408W cells) (Homo sapiens, UniProt P00439, R408W).
T1 construct: expressed in transfected cells
T1 sequence (P00439 1-452 R408W): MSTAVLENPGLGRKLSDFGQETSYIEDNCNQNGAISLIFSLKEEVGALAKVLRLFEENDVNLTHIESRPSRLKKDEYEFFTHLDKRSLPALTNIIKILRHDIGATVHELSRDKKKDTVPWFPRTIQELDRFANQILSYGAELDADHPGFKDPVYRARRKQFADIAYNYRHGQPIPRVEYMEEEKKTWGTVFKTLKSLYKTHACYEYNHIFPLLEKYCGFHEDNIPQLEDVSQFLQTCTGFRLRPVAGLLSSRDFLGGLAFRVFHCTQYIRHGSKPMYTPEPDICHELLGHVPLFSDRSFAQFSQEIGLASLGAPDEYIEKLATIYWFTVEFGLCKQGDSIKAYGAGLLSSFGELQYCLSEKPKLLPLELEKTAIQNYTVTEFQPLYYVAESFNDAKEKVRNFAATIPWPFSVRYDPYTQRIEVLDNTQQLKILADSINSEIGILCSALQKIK
Nature of the test: Cell Based Phenylalanine Flux Assay. Particulars: A375 R408W cells; 24 hrs with compound, then 20 μM sepiapterin and 800 μM 13C9,15N-Phenylalanine for 4 hours; 13C-Tyrosine by LC-MS; average where tested multiple times. Put shortly: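 LC-MS quantitation of 13C-tyrosine in media gave AC50 values. Stable A375 R408W PAH cells were preincubated 24 h with compound, then fed 800 μM labelled Phe plus 20 μM sepiapterin for 4 h. Dose curves were 10-point, tested in duplicate, averaged over repeat runs.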
As to `Cc1c(F)ccc2oc([C@H]3c4nc[nH]c4CCN3C(=O)c3ocnc3C(F)F)nc12` [Example 721, (R)-(4-(difluoromethyl)oxazol-5-yl)(4-(5-fluoro-4-methylbenzo[d]oxazol-2-yl)-6,7-dihydro-1H-imidazo[4,5-c]pyridin-5(4H)-yl)methanone], the AC50 (as a rule, the concentration giving half of the maximal activity seen) was 1000 to 5000 nM. Still for that read-out and setting: the value for `Cc1ncoc1C(=O)N1CCc2[nH]cnc2[C@@H]1c1nc2cccc(F)c2o1` [Example 570, (R)-(4-(7-fluorobenzo[d]oxazol-2-yl)-6,7-dihydro-1H-imidazo[4,5-c]pyridin-5(4H)-yl)(4-methyloxazol-5-yl)methanone] was 1000 to 5000 nM; that for `O=C(c1nnc(-c2ccc(F)cc2F)o1)N1CCc2[nH]cnc2[C@H]1c1nc2cc(F)ccc2o1` [Example 84, (S)-(5-(2,4-difluorophenyl)-1,3,4-oxadiazol-2-yl)(4-(5-fluorobenzo[d]oxazol-2-yl)-6,7-dihydro-1H-imidazo[4,5-c]pyridin-5(4H)-yl)methanone] was at most 500 nM; that for `O=C(c1ccnn1C1CC1)N1CCc2[nH]cnc2[C@@H]1c1nc2cccc(F)c2o1` [Example 728, (R)-(1-cyclopropyl-1H-pyrazol-5-yl)(4-(7-fluorobenzo[d]oxazol-2-yl)-6,7-dihydro-1H-imidazo[4,5-c]pyridin-5(4H)-yl)methanone] was at least 5000 nM. Same read-out and setting: the value for `O=C(c1ccnn1C(F)F)N1CCc2[nH]cnc2[C@@H]1c1nc2c(F)ccc(F)c2o1` [Example 488, (R)-(4-(4,7-difluorobenzo[d]oxazol-2-yl)-6,7-dihydro-1H-imidazo[4,5-c]pyridin-5(4H)-yl)(1-(difluoromethyl)-1H-pyrazol-5-yl)methanone] was 1000 to 5000 nM. Same read-out and setting: as for `Cc1ccc2nc([C@@H]3c4nc[nH]c4CCN3C(=O)c3oc(C(C)(C)O)nc3Br)oc2c1` [Example 439, (S)-(4-bromo-2-(2-hydroxypropan-2-yl)oxazol-5-yl)(4-(6-methylbenzo[d]oxazol-2-yl)-6,7-dihydro-1H-imidazo[4,5-c]pyridin-5(4H)-yl)methanone], the figure is at most 500 nM; as for `O=C(CC1CC(F)C1)N1CCc2[nH]cnc2[C@@H]1c1nc2cc(F)ccc2o1` (stereo partly drawn) [Example 60, (R)-1-(4-(5-fluorobenzo[d]oxazol-2-yl)-6,7-dihydro-1H-imidazo[4,5-c]pyridin-5(4H)-yl)-2-(3-fluorocyclobutyl)ethanone], 1000 to 5000 nM; as for `Cc1cccc2nc([C@H]3c4nc[nH]c4CCN3C(=O)c3nnc(-c4cnn(C)c4)o3)oc12` [Example 566, (R)-(5-(1-methyl-1H-pyrazol-4-yl)-1,3,4-oxadiazol-2-yl)(4-(7-methylbenzo[d]oxazol-2-yl)-6,7-dihydro-1H-imidazo[4,5-c]pyridin-5(4H)-yl)methanone], 1000 to 5000 nM. In the case of `O=C(c1ocnc1C(F)(F)F)N1CCc2[nH]cnc2[C@@H]1c1nc2cccc(F)c2o1` [Example 172, (R)-(4-(7-fluorobenzo[d]oxazol-2-yl)-6,7-dihydro-1H-imidazo[4,5-c]pyridin-5(4H)-yl)(4-(trifluoromethyl)oxazol-5-yl)methanone], the AC50 was at most 500 nM.

With `CC(F)(F)c1ncoc1C(=O)N1CCc2[nH]cnc2[C@H]1c1nc2cc(F)ccc2o1` [Example 153, (S)-(4-(1,1-difluoroethyl)oxazol-5-yl)(4-(5-fluorobenzo[d]oxazol-2-yl)-6,7-dihydro-1H-imidazo[4,5-c]pyridin-5(4H)-yl)methanone], the AC50 lay in the range of 500 to 1000 nM. Regarding `Cc1ccc2oc([C@@H]3c4nc[nH]c4CCN3C(=O)c3oc(C(C)(C)O)nc3C)nc2c1` [Example 331, (S)-(2-(2-hydroxypropan-2-yl)-4-methyloxazol-5-yl)(4-(5-methylbenzo[d]oxazol-2-yl)-6,7-dihydro-1H-imidazo[4,5-c]pyridin-5(4H)-yl)methanone], the AC50 was 500 to 1000 nM. With `Cc1ccc2nc([C@H]3c4nc[nH]c4CCN3C(=O)c3nnc(-c4cc[nH]n4)o3)oc2c1` [Example 360, (R)-(5-(1H-pyrazol-3-yl)-1,3,4-oxadiazol-2-yl)(4-(6-methylbenzo[d]oxazol-2-yl)-6,7-dihydro-1H-imidazo[4,5-c]pyridin-5(4H)-yl)methanone], the AC50 fell in the range of 1000 to 5000 nM. Consider `O=C(c1nnc(-c2ccn(C(F)F)n2)o1)N1CCc2[nH]cnc2[C@@H]1c1nc2ccccc2o1` [Example 845, (R)-(4-(benzo[d]oxazol-2-yl)-6,7-dihydro-1H-imidazo[4,5-c]pyridin-5(4H)-yl)(5-(1-(difluoromethyl)-1H-pyrazol-3-yl)-1,3,4-oxadiazol-2-yl)methanone], for which the AC50 was in the range of 1000 to 5000 nM. For the compound `O=C(c1ccnn1C(F)F)N1CCc2[nH]cnc2[C@@H]1c1nc2cccc(F)c2o1` [Example 196, (R)-(1-(difluoromethyl)-1H-pyrazol-5-yl)(4-(7-fluorobenzo[d]oxazol-2-yl)-6,7-dihydro-1H-imidazo[4,5-c]pyridin-5(4H)-yl)methanone], the AC50 lay in the range of 1000 to 5000 nM. In the case of `O=C(c1ocnc1C(F)F)N1CCc2[nH]cnc2[C@H]1c1nc2cc(C(F)(F)F)ccc2o1` [Example 329, (S)-(4-(difluoromethyl)oxazol-5-yl)(4-(5-(trifluoromethyl)benzo[d]oxazol-2-yl)-6,7-dihydro-1H-imidazo[4,5-c]pyridin-5(4H)-yl)methanone], the AC50 was at most 500 nM. Same read-out and setting: the value for `COc1cccc2nc([C@@H]3c4nc[nH]c4CCN3C(=O)c3ccnn3C)oc12` [Example 749, (S)-(4-(7-methoxybenzo[d]oxazol-2-yl)-6,7-dihydro-1H-imidazo[4,5-c]pyridin-5(4H)-yl)(1-methyl-1H-pyrazol-5-yl)methanone] was at most 500 nM. With `O=C(c1ocnc1C(F)F)N1CCc2[nH]cnc2[C@H]1c1nc2cc(Br)ccc2o1` [Example 149, (S)-(4-(5-bromobenzo[d]oxazol-2-yl)-6,7-dihydro-1H-imidazo[4,5-c]pyridin-5(4H)-yl)(4-(difluoromethyl)oxazol-5-yl)methanone], the AC50 was at most 500 nM. Take `O=C(c1cnn2cc(-c3ccccn3)ccc12)N1CCc2[nH]cnc2[C@H]1c1nc2cccc(F)c2o1` [Example 451, (S)-(4-(7-fluorobenzo[d]oxazol-2-yl)-6,7-dihydro-1H-imidazo[4,5-c]pyridin-5(4H)-yl)(6-(pyridin-2-yl)pyrazolo[1,5-a]pyridin-3-yl)methanone]: the AC50 is at most 500 nM. Take `Cc1cc(F)ccc1-c1nnc(C(=O)N2CCc3[nH]cnc3[C@H]2c2nc3cc(F)ccc3o2)o1` [Example 77, (S)-(5-(4-fluoro-2-methylphenyl)-1,3,4-oxadiazol-2-yl)(4-(5-fluorobenzo[d]oxazol-2-yl)-6,7-dihydro-1H-imidazo[4,5-c]pyridin-5(4H)-yl)methanone]: the AC50 was 500 to 1000 nM. On the same count and under the same terms, the value for `C[C@@H](O)c1nc(C(F)F)c(C(=O)N2CCc3[nH]cnc3[C@H]2c2nc3cccc(F)c3o2)o1` [Example 245, (4-(difluoromethyl)-2-((R)-1-hydroxyethyl)oxazol-5-yl)((S)-4-(7-fluorobenzo[d]oxazol-2-yl)-6,7-dihydro-1H-imidazo[4,5-c]pyridin-5(4H)-yl)methanone] was at most 500 nM. Regarding `Cn1cc(-c2nc(C(F)F)c(C(=O)N3CCc4[nH]cnc4[C@H]3c3nc4cccc(F)c4o3)o2)cn1` [Example 636, (S)-(4-(difluoromethyl)-2-(1-methyl-1H-pyrazol-4-yl)oxazol-5-yl)(4-(7-fluorobenzo[d]oxazol-2-yl)-6,7-dihydro-1H-imidazo[4,5-c]pyridin-5(4H)-yl)methanone], the AC50 was at most 500 nM.

Still in this test, the particulars now being: A375 cells expressing R408W PAH; 24 hrs with compound, then 20 μM sepiapterin and 800 μM 13C9,15N-Phenylalanine for 4 hours; 13C-Tyrosine by LC-MS; average where tested multiple times.
Turning to `O=C(c1cn(-c2ccccn2)nc1Cl)N1CCc2[nH]cnc2C1c1nc2cc(F)ccc2o1` (centres unmarked), the AC50 lay within 1000 to 5000 nM.

Take `O=C(c1cnn(-c2ccccn2)c1Cl)N1CCc2[nH]cnc2C1c1nc2cc(F)ccc2o1` (centres unmarked): the AC50 is at least 5000 nM. Still for that read-out and setting: the value for `CC(C)(O)c1cc(C(=O)N2CCc3[nH]cnc3C2c2nc3cccc(F)c3o2)on1` (centres unmarked) was 1000 to 5000 nM. Same read-out and setting: as for `Cc1ccc2nc(C3c4nc[nH]c4CCN3C(=O)c3cncs3)oc2c1` (centres unmarked), the figure is 1000 to 5000 nM. The same measure, in the same setting: the value for `CCOC(=O)N1CCN(c2ccc3c(C(=O)N4CCc5[nH]cnc5C4c4nc5cc(F)ccc5o4)cnn3c2)CC1` (centres unmarked) was 1000 to 5000 nM. As to `Cc1ccc2nc(C3c4nc[nH]c4CCN3C(=O)c3cnn4cc(CCN(C)C)ccc34)oc2c1` (centres unmarked), the AC50 lay within 1000 to 5000 nM. On to `COC(C)(C)c1nc(C)c(C(=O)N2CCc3[nH]cnc3C2c2nc3cc(F)ccc3o2)o1` (centres unmarked), for which the AC50 was at least 5000 nM. On the same count and under the same terms, the value for `Cn1ccc(C(=O)N2CCc3[nH]cnc3C2c2nc3cc(F)ccc3o2)n1` (centres unmarked) was 1000 to 5000 nM. Same read-out and setting: the value for `O=C(CCc1cnco1)N1CCc2[nH]cnc2C1c1nc2cc(F)ccc2o1` (centres unmarked) was 1000 to 5000 nM. For `COCCNc1ccc2c(C(=O)N3CCc4[nH]cnc4C3c3nc4cc(F)ccc4o3)cnn2c1` (centres unmarked), the AC50 was at least 5000 nM. Still for that read-out and setting: as for `O=C(c1cnn2cc(CCN3CCOCC3)ccc12)N1CCc2[nH]cnc2C1c1nc2cc(F)ccc2o1` (centres unmarked), the figure is at least 5000 nM; as for `O=C(c1nncn1C1CC1)N1CCc2[nH]cnc2C1c1nc2cccc(F)c2o1` (centres unmarked), 1000 to 5000 nM; as for `O=C(c1cnn2cc(N3CCN(CC(F)(F)F)CC3)ccc12)N1CCc2[nH]cnc2C1c1nc2cc(F)ccc2o1` (centres unmarked), 1000 to 5000 nM. With `CC(C)(O)C1CCN(c2ccc3c(C(=O)N4CCc5[nH]cnc5C4c4nc5cc(F)ccc5o4)cnn3c2)CC1` (centres unmarked), the AC50 is at least 5000 nM.
